Source: patent US20090017006A1, “USE OF A COMPOUND FOR ENHANCING THE EXPRESSION OF MEMBRANE PROTEINS ON THE CELL SURFACE” (BIODEVELOPS PHARMA ENTWICKLUNG GMBH, priority 2005, published 2009)
“Also recorded” adds a separate entry of the source. Residues, ends and D or L forms follow the SMILES beside them. *: point of attachment. Cbz = O=C(OCc1ccccc1)*

Key:
Format in all cases: cell-based
CFTR-ΔF508 [1] = assay: FACS monitoring of expression of GFP-tagged CFTR-ΔF508 in HEK293 cells; details: for CFTR-ΔF508-associated fluorescence (expression level) versus control: 24 h
Experimental: (§1) Cultured HEK293 cells were transfected with plasmids encoding CFTR or CFTR-ΔF508 (GFP-tagged) and/or co-transfected with plasmids encoding USP4 (or an appropriate control plasmid) by using the CaPO4-precipitation method. Sixteen hours after transfection the cells were treated with varying concentrations of compounds. At a specific time point (here 24 h) the cells are trypsinized, fixed in ethanol, permeabilized and stained with propidium iodide (PI). The stained cells are subjected to FACS analysis
Because CFTR is tagged with a fluorescent protein, expression in individual cells can be monitored by fluorescence activated cell sorting (FACS). By contrast with fluorescence microscopy (where individual cells are picked), FACS allows to survey the entire cell population. In addition, FACS has the advantage that it allows for reasonable sample throughput; finally, automation and scale-up is readily possible.
The original data set is shown on the right hand side of the figures, respectively (see e.g. FIG. 2c): the x-axis is the propidium iodide fluorescence (note that the scale is linear). The y-axis is the GFP-fluorescence (=fluorescence associated with CFTR; note that the scale is logarithmic) and each dot corresponds to a cell. The quadrangle delineates the cells that express CFTR.

HEK293 cells = assay: FACS propidium iodide staining: cell cycle distribution / apoptosis of transfected HEK293 cells
Experimental: as §1
Transiently transfected HE 293 cells were fixed in ethanol 24 h after transfection as mentioned above and then stained with propidium iodide to label the DNA: the rationale was to examine the distribution of cells in the cell cycle (=to see if the expression of CFTR or of CFTR-ΔF508 was toxic or if the compounds employed killed the cells/drove them into apoptosis).
One can plot the cell counts against the propidium iodide fluorescence of the transfected cells (such as shown in, for example, FIG. 2b): This gives a peak of cells (denoted by M1) that have a 2n content of DNA (G1-cells), a shoulder of cells that have a DNA content of larger than 2n (denoted by M3 and representing cells that are in S-phase) and a second peak of cells that have a DNA content of 4n (denoted by M2 and representing cells in G2 and M-phase).

CFTR-ΔF508 [2] = assay: Immunoblot for GFP-tagged CFTR-ΔF508 expressed in HEK293 cells (endoglycosidase H treated extracts); set-up: accumulation of CFTR-ΔF508 (intensity of staining compared to control lane 4): unit of the concentration uncertain; details: for accumulation of CFTR-ΔF508 (intensity of staining compared to control lane 4): treated overnight (16 h)
Experimental: HEK293 cells (1*10^6 cells) were transfected with plasmids encoding CFTR or CFTR-ΔF508 (GFP-tagged) and/or co-transfected with effector plasmids. After 16 h, the cells were treated with the varying concentrations of compounds. After 24 h, the cells were harvested in phosphate-buffered saline, lysed by a freeze-thaw cycle and homogenized by sonication. The homogenate was resuspended in reducing Laemmli sample buffer (50 mM Tris.Hcl, pH 6.8, 20% glycerol, 0.1% bromophenol blue, 2% SDS and 20 mM dithiothreitol); aliquots (15% of the original culture) were resolved on a denaturing polyacrylamide gel (monomer concentration in the stacking gel and in the running gel 4 and 8% respectively) and electrophoretically transferred to a nitrocellulose membrane. Immunodetection was done with an antiserum directed against GFP as the primary antibody and an anti-rabbit IgG coupled to horseradish peroxidase as the secondary antibody.
In a first example, Membranes from transfected cells were prepared and immunoblotted for GFP-tagged CFTR or CFTR-ΔF508, respectively (by using an antibody directed against the fluorescent protein).
The membrane extract was also treated endoglycosidase H. The rationale for this experiment is as follows: membrane proteins are core glycosylated in the endoplasmatic reticulum. Core glycosylation is sensitive to endoglycosidase H. If the protein has reached the Golgi (and then trafficked to the plasma membrane), it acquires additional sugar moieties and becomes resistant to endoglycosidase H. It is evident from lane 3 in FIG. 1 that endoglycosidase H treatment reduces the apparent size of CFTR; thus, the bulk of the protein is still in the ER. The following lanes examine the expression of CFTR-ΔF508 (all extracts were treated with endoglycosidase H): lane 4 is the control, that is cells expressing CFTR-ΔF508; in lanes 5, 6, 7 and 8 cells expressing CFTR-ΔF508 were treated overnight (i.e. for 16 h) with 100 nM MG132, […], […] and 100 nM bortezomib, respectively.

[3] = cells cotransfected with plasmid driving expression of USP4

With `CC(C)C[C@@H](C=O)NC(=O)[C@H](CC(C)C)NC(=O)[C@H](CC(C)C)NC(=O)OCc1ccccc1` [MG132] (Cbz-Leu-Leu-Leu-aldehyde) the CFTR-ΔF508-expression (CFTR-ΔF508 [1]; 1 μg, HEK293 cells) was “enhances CFTR-ΔF508-expression” and the apoptotic effect (HEK293 cells; 1 μg, HEK293 cells) was “pronounced apoptotic effect”.
In the case of `CC(C)C[C@H](NC(=O)[C@H](Cc1ccccc1)NC(=O)c1cnccn1)B(O)O` [Bortezomib, N-(2-pyrazine)carbonyl-L-phenylalanine-L-leucine-boronic acid], the “relative effectiveness in accumulation of CFTR-ΔF508, 100 nM versus 1 μM” value (CFTR-ΔF508 [2]; 100 nM compared with 1 μM, 16 h) is reported as “more effective than 1 μM bortezomib”, the “accumulation of CFTR-ΔF508 (intensity of staining compared to control lane 4)” value (CFTR-ΔF508 [2]; 100 nM) is reported as “led to the accumulation of CFTR-ΔF508” and the “accumulation of CFTR-ΔF508 (intensity of staining compared to control lane 4)” value (CFTR-ΔF508 [2]; 1 (unit uncertain)) is reported as “led to the accumulation of CFTR-ΔF508”. The “CFTR-ΔF508-associated fluorescence (expression level) versus control” value (CFTR-ΔF508 [1]; 10 nM, HEK293 cells) was “expression of CFTR is increased; also recorded: substantially increases the level of CFTR-ΔF508”, the “CFTR-ΔF508-associated fluorescence (expression level) versus control” value (CFTR-ΔF508 [1]; 100 nM, HEK293 cells) was “expression of CFTR is increased” and the “cell cycle distribution of CFTR-ΔF508 expressing cells versus control” value (HEK293 cells; 10 nM, HEK293 cells) was “essentially the same as the one shown in control cells”. The “number of cells with low propidium iodide fluorescence (apoptotic cells)” value (HEK293 cells; 100 nM, HEK293 cells) was “number of cells with low propidium iodide fluorescence increases”, the “peak of the G1-cells (M1) in cell cycle distribution” value (HEK293 cells; 100 nM, HEK293 cells) was “greatly reduced” and the “number of cells with low propidium iodide fluorescence (apoptotic cells)” value (HEK293 cells; 1 μM, HEK293 cells) was “number of cells with low propidium iodide fluorescence increases”. The “peak of the G1-cells (M1) in cell cycle distribution” value (HEK293 cells; 1 μM, HEK293 cells) was “greatly reduced”.
In the case of `O=C1N[C@@H]2[C@@H](O)[C@@H](O)[C@H](O)[C@@H](CO)N2C1=O` [kifunensine], the “accumulation of CFTR-ΔF508 (intensity of staining compared to control lane 4)” value (CFTR-ΔF508 [2]; 20 (unit uncertain)) is reported as “led to the accumulation of CFTR-ΔF508”.
“USP-4: deubiquitinating enzyme (ubiquitin specific protease), co-expressed in cells from a transfected plasmid” was tested, and the “CFTR-ΔF508-associated fluorescence versus control” value (CFTR-ΔF508 [1]; [3]) was “CFTR-ΔF508-associated fluorescence increases” and the “toxicity / apoptosis (cell cycle distribution, sub-2n fraction)” value (HEK293 cells; [3]) was “not toxic and does not cause apoptosis”.
